Consider two compounds from article PMC8792282 (Redox Biology, 2022).

For experiment [1], the target named is T1, Protein disulfide isomerase (PDI) (Homo sapiens, UniProt P07237). Put plainly: insulin reduction assay. The format is biochemical.
The target in experiment [2] is T1, Protein disulfide isomerase (PDI). The experiment is described as follows: insulin reduction assay. Format: biochemical. The source holds these as a separate data set.

Like-named read-outs stand apart in the source and are kept apart here.

T1 sequence (P07237 18-508): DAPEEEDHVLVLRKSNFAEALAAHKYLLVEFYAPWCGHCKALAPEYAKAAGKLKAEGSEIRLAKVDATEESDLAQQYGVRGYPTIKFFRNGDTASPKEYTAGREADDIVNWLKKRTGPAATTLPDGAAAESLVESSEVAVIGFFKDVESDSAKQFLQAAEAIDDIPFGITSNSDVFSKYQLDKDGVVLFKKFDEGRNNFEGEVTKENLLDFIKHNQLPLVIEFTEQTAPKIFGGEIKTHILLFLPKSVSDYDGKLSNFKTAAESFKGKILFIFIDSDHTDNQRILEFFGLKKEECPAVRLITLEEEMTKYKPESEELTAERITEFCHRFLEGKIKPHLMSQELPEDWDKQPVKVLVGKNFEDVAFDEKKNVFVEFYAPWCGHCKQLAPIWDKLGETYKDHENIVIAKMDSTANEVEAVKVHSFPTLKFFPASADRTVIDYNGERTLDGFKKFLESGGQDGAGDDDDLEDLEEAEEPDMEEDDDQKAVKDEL

A word on the IC50: it is the concentration at which inhibition is half-maximal. A low value points to inhibition by little substance. With `C[C@@H]1O[C@@H](OC[C@H]2O[C@@H](Oc3c(-c4ccc(O)c(O)c4)oc4cc(O)cc(O)c4c3=O)[C@H](O)[C@@H](O)[C@@H]2O)[C@H](O)[C@H](O)[C@H]1O` [rutin], in experiment [1], the IC50 came to 4500 nM. Consider bepristat 2a, for which, in experiment [2], the IC50 came to 700 nM.
